Assay [1] addresses JAK1 (Homo sapiens (Human), UniProt P23458). Kind of assay: Jak Biochemical HTRF Assay (JAK1). How it is done: (§1) Jak Biochemical HTRF Assay Protocol
(§2) The ability of compounds to inhibit the activity of JAK1, JAK2, JAK3, and Tyk2 was measured using a recombinant purified GST-tagged catalytic domain for each enzyme (Invitrogen JAK1 #M4290, JAK2 #M4290, JAK3 #M4290, Tyk2 #M4290) in an HTRF format biochemical assay. […] The basic assay protocol is as follows: First, 250 nL of diluted compounds in DMSO were dispensed into the wells of a dry 384-well Black plate (Greiner #781076) using a Labcyte Echo 555 acoustic dispenser. Subsequent reagent additions employed an Agilent Bravo. Next, 18 μL of 1.11× enzyme and 1.11× substrate in 1× assay buffer (Invitrogen kinase buffer # PV3189, 2 mM DTT, 0.05% BSA) were added to the wells and shaken and then preincubated for 30 minutes at room temperature to allow compound binding to equilibrate. After equilibration, 2 μL of 10×ATP in 1× assay buffer was added to initiate the kinase reaction and the plates were shaken and then incubated at room temperature for 120 minutes. At the end of the incubation, 20 μL of 2× stop buffer (streptavidin-Dylight 650 (Thermo #84547B/100 mL), Eu-tagged pY20 antibody (Perkin Elmer #AD0067), EDTA, HEPES, and Triton) was added to quench the reaction. Plates were shaken and centrifuged and then incubated 60 minutes at room temperature and then read on a Perkin Elmer Envision (Xex=337 nm, λem=665 and 615 nm, TRF delay time=20 μs). HTRF signal=10,000*665 nm reading/615 nm reading. After normalization to untreated controls, the percent inhibition of the HTRF signal at each compound concentration was calculated. The plot of percent inhibition versus the log of compound concentration was fit with a 4-parameter dose response equation to calculate IC50 values.
(In general: TR-FRET usually uses a lanthanide donor and a delayed reading to cut background.)

In assay [2] the target is JAK2 (Homo sapiens (Human), UniProt O60674). Kind of assay: Jak Biochemical HTRF Assay (JAK2). The settings on record: recombinant purified GST-tagged catalytic domain, [ATP] 8.5 μM, [E] 0.052 nM. How it is done:
as §1, §2

Where [3] appears, read: recombinant purified GST-tagged catalytic domain, HTRF, [ATP] 31.8 μM, [E] 1.405 nM.

Like-named read-outs stand apart in the source and are kept apart here.

Sequence of JAK1 (P23458 875-1153): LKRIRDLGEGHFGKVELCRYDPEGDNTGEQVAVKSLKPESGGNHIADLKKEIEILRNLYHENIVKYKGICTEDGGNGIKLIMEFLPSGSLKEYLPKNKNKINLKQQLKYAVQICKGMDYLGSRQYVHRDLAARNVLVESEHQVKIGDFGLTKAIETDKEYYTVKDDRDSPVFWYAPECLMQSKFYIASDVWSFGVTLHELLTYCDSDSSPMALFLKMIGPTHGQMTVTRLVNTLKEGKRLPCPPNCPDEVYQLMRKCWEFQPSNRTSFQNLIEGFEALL
Sequence of JAK2 (O60674 849-1124): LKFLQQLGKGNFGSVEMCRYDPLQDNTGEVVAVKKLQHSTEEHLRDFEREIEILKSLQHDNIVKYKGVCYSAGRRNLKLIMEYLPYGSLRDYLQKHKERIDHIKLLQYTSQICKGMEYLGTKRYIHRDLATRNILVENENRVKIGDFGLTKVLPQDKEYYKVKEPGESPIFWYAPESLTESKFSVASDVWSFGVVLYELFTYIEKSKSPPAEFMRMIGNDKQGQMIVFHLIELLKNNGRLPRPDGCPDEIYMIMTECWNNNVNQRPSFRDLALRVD

Consider `CCC1(n2nc(Nc3ccc(C(=O)N4CCOC[C@@H]4C)c(C)c3)c3c(=O)[nH]ccc32)CCN(C(=O)OC(C)(C)C)CC1` [Example 2-6, (S)-tert-butyl 4-ethyl-4-(3-((3-methyl-4-(3-methylmorpholine-4-carbonyl)phenyl)amino)-4-oxo-4,5-dihydro-1H-pyrazolo[4,3-c]pyridin-1-yl) piperidine-1-carboxylate], for which the IC50 in assay [1] (setting [3]) and in assay [2] was 0.51 nM throughout.
Regarding `CCC1(n2nc(Nc3ccc(C(=O)N4CCO[C@H](C)C4)c(C)c3)c3c(=O)[nH]ccc32)CCN(C(=O)OC(C)(C)C)CC1` [Example 2-7, (R)-tert-butyl-4-ethyl-4-(3-(3-methyl-4-(2-methylmorpholine-4-carbonyl)phenylamino)-4-oxo-4,5-dihydropyrazolo[4,3-c]pyridin-1-yl) piperidine-1-carboxylate], the figures for the IC50 in assay [1] (setting [3]) and in assay [2] were 0.72 nM and 0.6 nM, respectively.
As for `CCC1(n2nc(Nc3ccc(C(=O)N4CCO[C@@H](C)C4)c(C)c3)c3c(=O)[nH]ccc32)CCN(C(=O)OC(C)(C)C)CC1` [Example 2-8, (5)-tert-butyl-4-ethyl-4-(3-(3-methyl-4-(2-methylmorpholine-4-carbonyl)phenylamino)-4-oxo-4,5-dihydropyrazolo[4,3-c]pyridin-1-yl) piperidine-1-carboxylate], the figures for the IC50 in assay [1] (setting [3]) and in assay [2] were 0.62 nM and 0.57 nM, respectively.
On the same counts, the results for `CCC1(n2nc(Nc3ccc(C(=O)N4CCOCC4)c(C)c3)c3c(=O)[nH]ccc32)CCN(C(=O)OC(C)(C)C)CC1` [Example 2-9, tert-butyl 4-ethyl-4-(3-((3-methyl-4-(morpholine-4-carbonyl)phenyl)amino)-4-oxo-4,5-dihydro-1H-pyrazolo[4,3-c]pyridin-1-yl) piperidine-1-carboxylate] are 0.37 nM and 0.47 nM.
`CCC1(n2nc(Nc3ccc(C(=O)N4CCOCC4)c(F)c3)c3c(=O)[nH]ccc32)CCN(C(=O)OC(C)(C)C)CC1` [Example 2-12, tert-butyl 4-ethyl-4-(3-((3-fluoro-4-(morpholine-4-carbonyl)phenyl)amino)-4-oxo-4,5-dihydro-1H-pyrazolo[4,3-c]pyridin-1-yl) piperidine-1-carboxylate]: the figures for the half-inhibitory concentration (IC50) in assay [1] (setting [3]) and in assay [2] were 0.56 nM and 0.74 nM, respectively.
Consider `CCC1(n2nc(Nc3ccc(C(=O)N4C5CCC4COC5)c(C)c3)c3c(=O)[nH]ccc32)CCN(C(=O)OC(C)(C)C)CC1` [Example 2-13, tert-butyl 4-(3-((4-(3-oxa-8-azabicyclo [3.2.1]octane-8-carbonyl)-3-methylphenyl)amino)-4-oxo-4,5-dihydro-1H-pyrazolo[4,3-c]pyridin-1-yl)-4-ethylpiperidine-1-carboxylate], for which the IC50 (commonly the concentration that inhibits the measured activity by half) in assay [1] was found to be 0.52 nM; in assay [2] it was 0.54 nM.
Consider `CCC1(n2nc(Nc3ccc(C(=O)N4CC5(COC5)C4)c(C)c3)c3c(=O)[nH]ccc32)CCN(C(=O)OC(C)(C)C)CC1` [Example 2-14, tert-butyl 4-ethyl-4-(3-((3-methyl-4-(2-oxa-6-azaspiro[3.3]heptane-6-carbonyl)phenyl)amino)-4-oxo-4,5-dihydro-1H-pyrazolo [4,3-c]pyridin-1-yl) piperidine-1-carboxylate], for which the IC50 in assay [1] (setting [3]) amounted to 0.3 nM; in assay [2], 0.43 nM.
In the same order, the values of `CCC1(n2nc(Nc3ccc(C(=O)N4C[C@H]5C[C@@H]4CO5)c(C)c3)c3c(=O)[nH]ccc32)CCN(C(=O)OC(C)(C)C)CC1` [Example 2-15, tert-butyl 4-(3-((4-((1R,4R)-2-oxa-5-azabicyclo[2.2.1]heptane-5-carbonyl)-3-methylphenyl)amino)-4-oxo-4,5-dihydro-1H-pyrazolo[4,3-c]pyridin-1-yl)-4-ethylpiperidine-1-carboxylate] are 0.4 nM and 0.43 nM.
As to `CCC1(n2nc(Nc3cccc(CC#N)c3)c3c(=O)[nH]ccc32)CCN(C(=O)OC(C)(C)C)CC1` [Example 2-17, tert-butyl 4-(3-((3-(cyanomethyl)phenyl)amino)-4-oxo-4,5-dihydro-1H-pyrazolo [4,3-c]pyridin-1-yl)-4-ethylpiperidine-1-carboxylate], the IC50 amounted to 0.53 nM in assay [1] (setting [3]) and 3.37 nM in assay [2].
On the same counts, the results for `CCC1(n2nc(Nc3ccc(C(=O)N4CCSCC4)c(C)c3)c3c(=O)[nH]ccc32)CCN(C(=O)OC(C)(C)C)CC1` [Example 2-21, tert-butyl 4-ethyl-4-(3-(3-methyl-4-(thiomorpholine-4-carbonyl)phenylamino)-4-oxo-4,5-dihydropyrazolo[4,3-c]pyridin-1-yl) piperidine-1-carboxylate] are 0.84 nM and 0.93 nM.
In the same order, the values of `CCC1(n2nc(Nc3ccc(C(=O)N4C[C@@H]5C[C@H]4CO5)c(C)c3)c3c(=O)[nH]ccc32)CCN(C(=O)OC(C)(C)C)CC1` [Example 2-22, tert-butyl 4-(3-(4-((1S,4S)-5-oxa-2-aza-bicyclo[2.2.1]heptane-2-carbonyl)-3-methylphenylamino)-4-oxo-4,5-dihydropyrazolo[4,3-c]pyridin-1-yl)-4-ethylpiperidine-1-carboxylate] are 0.36 nM and 0.44 nM.
With `CCC1(n2nc(Nc3ccc(C4CCNCC4)cc3)c3c(=O)[nH]ccc32)CCN(C(=O)OC(C)(C)C)CC1` [Example 2-23, tert-butyl 4-ethyl-4-(4-oxo-3-(4-(piperidin-4-yl)phenylamino)-4,5-dihydropyrazolo[4,3-c]pyridin-1-yl) piperidine-1-carboxylate], the IC50 came to 1.13 nM in assay [1] (setting [3]) and 1.92 nM in assay [2].
For `CCc1cc(Nc2nn(C3(CC)CCN(C(=O)OC(C)(C)C)CC3)c3cc[nH]c(=O)c23)ccc1C(=O)N1CCOCC1` [Example 2-24, tert-butyl 4-ethyl-4-(3-((3-ethyl-4-(morpholine-4-carbonyl)phenyl)amino)-4-oxo-4,5-dihydro-1H-pyrazolo[4,3-c]pyridin-1-yl) piperidine-1-carboxylate], the results for the IC50 in assay [1] (setting [3]) and in assay [2] were 0.47 nM and 0.84 nM, respectively.
With `CCC1(n2nc(Nc3ccc(C(=O)N4CCSCC4)c(C(F)F)c3)c3c(=O)[nH]ccc32)CCN(C(=O)OC(C)(C)C)CC1` [Example 2-25, tert-butyl 4-(3-(3-(difluoromethyl)-4-(thiomorpholine-4-carbonyl)phenylamino)-4-oxo-4,5-dihydropyrazolo[4,3-c]pyridin-1-yl)-4-ethylpiperidine-1-carboxylate], the IC50 stood at 1.73 nM in assay [1] (setting [3]) and 2.8 nM in assay [2].
Consider `CCC1(n2nc(Nc3ccc(C(=O)N4CCC(F)(F)CC4)c(C)c3)c3c(=O)[nH]ccc32)CCN(C(=O)OC(C)(C)C)CC1` [Example 2-26, tert-butyl 4-(3-(4-(4,4-difluoropiperidine-1-carbonyl)-3-methylphenylamino)-4-oxo-4,5-dihydropyrazolo [4,3-c]pyridin-1-yl)-4-ethylpiperidine-1-carboxylate], for which the figures for the IC50 in assay [1] (setting [3]) and in assay [2] were 1.19 nM and 1.44 nM, respectively.
`CCC1(n2nc(Nc3ccc(C(=O)N4CCOC[C@H]4C)c(C)c3)c3c(=O)[nH]ccc32)CCN(C(=O)OC(C)(C)C)CC1` [Example 2-28, (R)-tert-butyl-4-ethyl-4-(3-(3-methyl-4-(3-methylmorpholine-4-carbonyl)phenylamino)-4-oxo-4,5-dihydropyrazolo[4,3-c]pyridin-1-yl) piperidine-1-carboxylate]: the IC50 in assay [1] (setting [3]) was 0.54 nM; in assay [2] it was 0.51 nM.
On the same counts, the results for `CCc1cc(Nc2nn(C3(CC)CCN(C(=O)OC(C)(C)C)CC3)c3cc[nH]c(=O)c23)ccc1C(=O)N1CCSCC1` [Example 2-29, tert-butyl 4-ethyl-4-(3-(3-ethyl-4-(thiomorpholine-4-carbonyl)phenylamino)-4-oxo-4,5-dihydropyrazolo[4,3-c]pyridin-1-yl) piperidine-1-carboxylate] are 1.79 nM and 2.72 nM.
For the molecule `CCC1(n2nc(Nc3ccc4c(c3)CN(C3CCN(C)CC3)S4(=O)=O)c3c(=O)[nH]ccc32)CCN(C(=O)OC(C)(C)C)CC1` [Example 2-30, tert-butyl 4-ethyl-4-(3-((2-(1-methylpiperidin-4-yl)-1,1-dioxido-2,3-dihydrobenzo [d]isothiazol-5-yl)amino)-4-oxo-4,5-dihydro-1H-pyrazolo [4,3-c]pyridin-1-yl) piperidine-1-carboxylate], the IC50 in assay [1] (setting [3]) was determined as 0.29 nM; in assay [2], 0.36 nM.
On the same counts, the results for `CCC1(n2nc(Nc3ccc(C(=O)N4CCCC4)c(C)c3)c3c(=O)[nH]ccc32)CCN(C(=O)OC(C)(C)C)CC1` [Example 2-33, tert-butyl 4-ethyl-4-(3-(3-methyl-4-(pyrrolidine-1-carbonyl)phenylamino)-4-oxo-4,5-dihydropyrazolo[4,3-c]pyridin-1-yl) piperidine-1-carboxylate] are 0.73 nM and 1.06 nM.

The values are drawn from patent US10072025B2, “Ethyl N-boc piperidinyl pyrazolo pyridones as Janus kinase inhibitors” (Merck Sharp & Dohme Corp., priority 2014, dated 2018).
